Laboratory results published in patent publication US11077205B2, “Synthetic compound for improving efficiency of transfection” (Klinikum der Universität München, priority 2016, dated 2021).
Where no end group is shown, it is not given here. The star is where a group is joined. ξ: configuration not given here. Lipoyl(6ξ) = O=C(CCCCC1CCSS1)*

How the values were obtained:
[1] = normalized: most hydrophobic residue 100, glycine 0, cited from earlier work; for hydrophobicity index At pH 2: from Sereda et al. 1994; for hydrophobicity index At pH 7: from Monera et al. 1995
BEAS-2B cells [2] = assay: In vitro transfection, Metridia luciferase assay in BEAS-2B cells; assay type: cell-based, human; details: for pDNA transfection efficiency of P704 ternary complex (in words): MetLuc pDNA, P704 50 (w/w), FIG. 14a
Protocol: (§1) Preparation of IVT-mRNA/pDNA containing binary and ternary complexes: Stock solutions of P704 (5 mg/ml) and synthetic compound (1 mg/ml) were prepared in nuclease-free water (NF water) and stored at 4° C. P704 based binary complexes (P704/IVT-mRNA or P704/pDNA) were prepared by mixing equal volumes of diluted P704 stock solution with IVT-mRNA or pDNA solution at the desired concentration in 2× Tyrode's solution. Ternary complexes were generated via two-steps incubation. Briefly, P704 solutions at certain concentration (defined as weight/weight (w/w) ratio between P704 and nucleic acids) in NF-water were mixed with equal volume of synthetic compound solution at specific concentration (defined as N/P ratio, namely the […] between nitrogen residues in synthetic compound and nucleic acids phosphate groups). After 20 min incubation at room temperature (RT), same volumes of nucleic acid (IVT-mRNA or pDNA) solution in NF-water were added to the above P704/synthetic compound solution and mixed gently by pipetting up and down several times. Subsequently, complexes were incubated for another 20 min at RT prior to further use. IVT-mRNA or pDNA solutions in NF-water were complexed with brPEI (25 kDa) at an optimum N/P ratio, the resulting complexes were served as a control polyplex. As for control lipoplex, Lipofectamine® 2000 complexes were prepared according to the manufacturer's instructions using optimum concentration. In order to prepare DOTAP/DOPE liposomes, a lipid film was formed by removing the chloroform solvent in DOTAP/DOPE mixture solution under nitrogen atmosphere. The lipid film is hydrated with NF-water to make the final concentration 10 mM DOTAP/DOPE. The DOTAP/DOPE liposome formulation was formed by mixing 250 μl of pDNA encoding for firefly luciferase and cystic fibrosis transmembrane conductance regulator (fLUC-CFTR pDNA) (150 μg) containing solution and 250 μl diluted DOTAP/DOPE solution (190 μl of 10 mM DOTAP/DOPE liposome and 60 μl NF-water). The mix solution was incubated at RT for 20 min prior to further use.
(§2) In vitro transfection: For the luciferase assay, cells were seeded at a density of 1.8×10^4/well (BEAS-2B) or 3.5×10^4/well (16HBE) in 96-well plates 24 h before transfection to reach 60-80% confluence. Following removal of growth medium, cells were rinsed with DPBS (Gibco, Germany). 170 μl of fresh serum-free OptiMEM (Gibco, Germany) were added per well, and subsequently 30 μl of IVT-mRNA or pDNA containing complexes prepared, as described above, corresponding to 400 ng IVT-mRNA or pDNA per well, were added in replicates of five. After 4 h of incubation at 37° C. in a humidified 5% CO2-containing atmosphere, the transfection medium was replaced with culture medium supplemented with 10% FBS and 1% (v/v) penicillin/streptomycin. Luciferase activity in 50 μl supernatants from transfected cells was assayed with Metridia luciferase substrate (coelenterazine, Invivogen, France) after 24 h using a FLUOstar microplate reader (BMG Labtech, Germany) and its activity is expressed in relative light units (RLU). In all cases each sample was measured on at least two other occasions to ensure the reproducibility of the data.
The same transfection procedure as described above was applied. Luciferase activity was expressed in RLU. The data are given as the mean±standard deviation (SD) of the mean (n>5) in FIGS. 12a to 12k.
(§3) The concentration of P704 in ternary complexes for treatment of BEAS-2B cells was 50 (w/w) and the concentration of P704 in ternary complexes for treatment of 16HBE cells was 63 (w/w). The N/P ratios of the compounds in ternary complexes were as follows:
BEAS-2B cells: Compound 0 (DL) at 30, compound 1 at 20, compounds 3 and 11 at 15, compounds 4 and 6 at 10, compounds 2 and 9 at 5, compounds 5, 7, 8 and 10 at 2.5.
The same transfection procedure as described above was applied. Luciferase activity was expressed in RLU. […]

BEAS-2B cells [3] = assay: as above; assay type: cell-based, human; details: for pDNA expression compared with compound 0 containing ternary complexes: day 3
airway epithelium cells = assay: In vitro transfection study on cultured airway epithelium cells (luciferase, RLU/mg cellular protein); assay type: cell-based; details: ternary complexes formed by P704, a nucleic acid and the compound
Protocol: as §2, with “Luciferase activity in 50 μl supernatants from transfected cells was” left out, “[…]).” for “Germany) and its activity is expressed in relative light units (RLU).”

16HBE cells [4] = assay: In vitro transfection, Metridia luciferase assay in 16HBE cells; assay type: cell-based, human; details: for pDNA transfection efficiency of P704 ternary complex (in words): MetLuc pDNA, FIG. 14b
Protocol: as §1
as §2, with “data. […]” for “data.”
as §3
16HBE cells: Compound 0 (DL) at 20, compounds 1 and 11 at 15, compounds 2 and 3 at 10, compounds 4, 6, 8, and 9 at 5, compounds 5, 7, and 10 at 2.5.
The same transfection procedure as described above was applied.
The concentration of P704 in ternary complexes was 63 (w/w). The N/P ratio of the compounds in certain ternary complexes was as follows:
16HBE cells: Compound 1, 8, and 11 at 20; compound 0 (DL) and 3 at 10; compound 2 at 7.5; compounds 4, 6, 9, and 10 at 5, compounds 5 and 7 at 2.5. […]

16HBE cells [5] = assay: as above; assay type: cell-based, human
[6] = MetLuc mRNA, optimum composition
[7] = MetLuc pDNA, P704 ternary complex, day 3, optimum composition

Compound: NC(=O)C[C@H](N)C(=O)O [Asparagine (asn), Asparagine]
- hydrophobicity index At pH 2 [1]: −41
- hydrophobicity index At pH 7 [1]: −28

Compound: N[C@@H](Cc1c[nH]c2ccccc12)C(=O)O [Tryptophan (trp), Tryptophan]
- hydrophobicity index At pH 2 [1]: 84
- hydrophobicity index At pH 7 [1]: 97

Compound: N[C@@H](Cc1c[nH]cn1)C(=O)O [Histidine (his), Histidine]
- hydrophobicity index At pH 2 [1]: −42
- hydrophobicity index At pH 7 [1]: 8

Compound: CC(C)[C@H](N)C(=O)O [Valine (val), Valine]
- hydrophobicity index At pH 2 [1]: 79
- hydrophobicity index At pH 7 [1]: 76

Compound: DL-lipoic acid-WKKRRRRRRRRKK-GACYGLPHKFCG ({Lipoyl(6ξ)}-WKKRRRRRRRRKKGACYGLPHKFCG; cysteine pairing not given here) [compound 7]
- pDNA transfection efficiency of P704 ternary complex (in words) (BEAS-2B cells [2]; optimum N/P): similar
- pDNA expression compared with compound 0 containing ternary complexes (BEAS-2B cells [3]): slightly better

Compound: C[C@H](N)C(=O)O [Alanine (ala), Alanine]
- hydrophobicity index At pH 2 [1]: 47
- hydrophobicity index At pH 7 [1]: 41

Compound: NCCCC[C@H](N)C(=O)O [Lysine (lys), Lysine]
- hydrophobicity index At pH 2 [1]: −37
- hydrophobicity index At pH 7 [1]: −23

Compound: N[C@@H](Cc1ccccc1)C(=O)O [Phenylalanine (phe), Phenylalanine]
- hydrophobicity index At pH 2 [1]: 92
- hydrophobicity index At pH 7 [1]: 100

Compound: NH2-VKRKKKPKKRRRRKKWK(R-lipoic acid)-CONH2 (H-VKRKKKPKKRRRRKKWK(R‑lipoic acid)-NH2) [compound 0 (R)]
- transfection efficiencies of ternary complexes with compound 0 (DL) versus compound 0 (R) (airway epithelium cells): similar

Compound: CSCC[C@H](N)C(=O)O [Methionine (met), Methionine]
- hydrophobicity index At pH 2 [1]: 74
- hydrophobicity index At pH 7 [1]: 74

Compound: O=C(O)CCCCC1CCSS1 (racemic) [compound 2, DL-lipoic acid, reference compound]
- IVT-mRNA transfection efficiency of P704 ternary complex (in words) (BEAS-2B cells [2]; MetLuc mRNA, P704 63 (w/w), optimum N/P, FIG. 17a): rather low transfection efficiency
- pDNA transfection efficiency of P704 ternary complex (in words) (BEAS-2B cells [2]; optimum N/P): rather low transfection efficiency
- IVT-mRNA transfection efficiency of P704 ternary complex (in words) (16HBE cells [4]; MetLuc mRNA, P704 63 (w/w), optimum N/P, FIG. 17b): rather low transfection efficiency
- pDNA transfection efficiency of P704 ternary complex (in words) (16HBE cells [4]; P704 63 (w/w), optimum N/P): rather low transfection efficiency

Compound: N[C@@H](CS)C(=O)O [Cysteine (cys), Cysteine]
- hydrophobicity index At pH 2 [1]: 52
- hydrophobicity index At pH 7 [1]: 49

Compound: N[C@@H](Cc1ccc(O)cc1)C(=O)O [Tyrosine (tyr), Tyrosine]
- hydrophobicity index At pH 2 [1]: 49
- hydrophobicity index At pH 7 [1]: 63

Compound: DL-lipoic acid-WKKRRRRRRRRRKK-GACSERSMNFCG ({Lipoyl(6ξ)}-WKKRRRRRRRRRKKGACSERSMNFCG; cysteine pairing not given here) [compound 6]
- pDNA transfection efficiency of P704 ternary complex (in words) (16HBE cells [4]; P704 63 (w/w), optimum N/P): overwhelming signals

Compound: DL-lipoic acid-WLHHHKKLLHHHKKL-GACSERSMNFCG ({Lipoyl(6ξ)}-WLHHHKKLLHHHKKLGACSERSMNFCG; cysteine pairing not given here) [compound 8]
- luciferase expression of ternary complexes with P304 and MetLuc mRNA (16HBE cells [5]; P304 2000 (w/w), high N/P ratio, even higher than compound 9, FIG. 25a): rather high luciferase expression

Compound: DL-lipoic acid-WKKKKRRRRRKKKK-GACYGLPHKFCG ({Lipoyl(6ξ)}-WKKKKRRRRRKKKKGACYGLPHKFCG; cysteine pairing not given here) [compound 5]
- pDNA transfection efficiency of P704 ternary complex (in words) (BEAS-2B cells [2]; optimum N/P): similar
- pDNA expression compared with compound 0 containing ternary complexes (BEAS-2B cells [3]): slightly better

Compound: NH2-VKRKKKPKKRRRRKK-CONH2 (H-VKRKKKPKKRRRRKK-NH2) [compound 1]
- IVT-mRNA transfection efficiency relative to P704/compound 0/IVT-mRNA complex (BEAS-2B cells [2]; [6]): one third
- IVT-mRNA transfection efficiency relative to P704/compound 0/IVT-mRNA complex (16HBE cells [4]; [6]): one third
- pDNA transfection, share of maximum signal intensity of compound 0 counterpart (BEAS-2B cells [3]; [7]): 7%
- pDNA transfection, share of maximum signal intensity of compound 0 counterpart (16HBE cells [5]; [7]): half

Compound: DL-lipoic acid-WKKKKRRRRRKKKK-GACSERSMNFCG ({Lipoyl(6ξ)}-WKKKKRRRRRKKKKGACSERSMNFCG; cysteine pairing not given here) [compound 4]
- pDNA transfection efficiency of P704 ternary complex (in words) (BEAS-2B cells [2]; optimum N/P): similar

Compound: CC[C@H](C)[C@H](N)C(=O)O [Isoleucine (ile), Isoleucine]
- hydrophobicity index At pH 2 [1]: 100
- hydrophobicity index At pH 7 [1]: 99
